Like-named read-outs stand apart in the source and are kept apart here.

One experiment has as its system AncSR1_Alt2. The experiment is described as follows: luciferase reporter assay, alternative reconstruction AncSR1_Alt2. Type of experiment: cell-based. The settings on record: for activation (in words): Alt2, fold activation at 10^-6 M, Fig. S5C. An excerpt: (§1) To determine the robustness of functional inferences to statistical uncertainty in the reconstruction of AncSR1 and AncSR2, we used two approaches. AncSR1 had too many ambiguously reconstructed sites to examine each such residue individually, so we computationally sampled from the posterior probability distribution of reconstructed amino acid states to generate a cloud of possible ancestral sequences, each harboring a large number of alternate states. Specifically, we generated 1,000,000 possible ancestral sequences by sampling from the posterior probability distribution of states at each site. […] We synthesized these five radically alternative ancestral reconstructions de novo and repeated the functional assays.
(§2) A) Distribution of posterior probabilities of 1 million protein sequences assembled by sampling amino acid states at each site from the posterior probability distribution for AncSR1 LBD. The ML reconstruction (AncSR1-ML) and the five alternative sequences with the highest posterior probability (Alt1-Alt5) in the 1 million samples are […]
(§3) The column height and error bars indicate the mean and SEM of three independent experiments, respectively. […]
On the technique in general: Reporter assays use an easily measured gene product as a stand-in for the process of interest.

The test system of the next experiment is AncSR2-LBD. The experiment is described as follows: luciferase reporter gene assay, Gal4-DBD fusion of AncSR2-LBD in CHO-K1 cells, activation. In kind it is cell-based. The settings on record: for EC50: AncSR2, representative dose activation curves (Fig. S4) and Table S5 sections c-i. An excerpt: To experimentally test these hypotheses, we synthesized cDNAs for the AncSR1 and AncSR2 LBD protein sequences, expressed them as Gal4-DBD fusion constructs, and characterized their sensitivity to hormones using luciferase reporter gene assays. […] It was unresponsive to a broad array of androgens, progestagens, and corticosteroids, as well as cholesterol (Figure 2A, Figure S3).
For AncSR2, we identified all plausible alternate reconstructions (those with posterior probability >0.20 excluding biochemically similar K/R, D/E, S/T, and I/L differences) and introduced each alternate state individually into the AncSR2 background using the Quikchange Mutagenesis kit (Stratagene), verified clones by sequencing, and repeated the activation assays with each version of AncSR2 (Figure S6). The ML AncSR2 sequence reconstructed on the ML tree had high baseline activation in the absence of ligand; this phenotype is almost certainly an artifact, because constitutive baseline activity is not present in any of AncSR2's extant descendants; it is well-established that some amino acid replacements can cause nuclear receptors to become constitutive by marginally stabilizing the active conformation in the absence of hormone. […] The “constitutive” Leu79 state is weakly supported on the ML tree (PP = 0.59), and has no support (PP = 0.00) on the phylogeny that is most parsimonious in terms of gene duplications and losses; in contrast, the “non-constitutive” state Met79 has PP = 0.41 on the ML tree and PP = 1.00 on the rearranged gene duplication/loss tree (Figure S12, Table S8). The AncSR2 sequence used for all experiments reported in the text therefore contains state Met79. The other alternate reconstructions were then reintroduced into this AncSR2 sequence: none qualitatively changed the receptor's sensitivity to the various classes of steroid hormones, except for A171V, which conferred constitutive activity (Figure S6).

Experiment [1] deals with T1, estrogen receptor ligand binding domain (Capitella capitata, UniProt C0IRV2).
T1 sequence (C0IRV2 151-381): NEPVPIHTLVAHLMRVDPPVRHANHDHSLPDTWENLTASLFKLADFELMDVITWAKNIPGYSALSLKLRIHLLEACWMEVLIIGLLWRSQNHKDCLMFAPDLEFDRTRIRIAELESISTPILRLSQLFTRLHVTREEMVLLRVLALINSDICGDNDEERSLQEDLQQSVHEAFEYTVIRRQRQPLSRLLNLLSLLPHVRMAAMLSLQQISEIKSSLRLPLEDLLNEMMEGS
Description: activation of the estrogen receptor ligand binding domain of Capitella capitata.
From the text: (§4) Fig. S8 Activation of the estrogen receptor ligand binding domains of two annelids (Capitella capitata, a polychaete worm &
(§5) Values adjacent to the hormone legends (red squares and black triangles) indicate the EC50 value for

The next experiment has as its system AncSR1-LBD. The experiment is described as follows: luciferase reporter gene assay, Gal4-DBD fusion of AncSR1-LBD in CHO-K1 cells, activation. In kind it is cell-based. The settings on record: for activation (in words): fold activation at 10^-6 M, Fig. S5C. An excerpt: To experimentally test these hypotheses, we synthesized cDNAs for the AncSR1 and AncSR2 LBD protein sequences, expressed them as Gal4-DBD fusion constructs, and characterized their sensitivity to hormones using luciferase reporter gene assays.

For experiment [2], the target named is T2, estrogen receptor ligand binding domain (Platynereis dumerilii, UniProt C0IR13).
T2 sequence (C0IR13 197-482): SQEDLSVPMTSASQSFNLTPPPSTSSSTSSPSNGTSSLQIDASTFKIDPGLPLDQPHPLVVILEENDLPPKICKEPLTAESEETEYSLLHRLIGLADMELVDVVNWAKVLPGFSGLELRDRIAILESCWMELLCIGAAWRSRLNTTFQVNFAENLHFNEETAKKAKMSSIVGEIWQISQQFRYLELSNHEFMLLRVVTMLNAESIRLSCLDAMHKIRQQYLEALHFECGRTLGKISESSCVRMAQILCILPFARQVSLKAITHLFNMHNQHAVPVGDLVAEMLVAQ
The experiment is described as follows: activation of the estrogen receptor ligand binding domain of Platynereis dumerilii.
From the text: as §4, §5

In another experiment the test system is AncSR1_Alt1. The experiment is described as follows: luciferase reporter assay, alternative reconstruction AncSR1_Alt1. In kind it is cell-based. The settings on record: for activation (in words): Alt1, fold activation at 10^-6 M, Fig. S5C.
From the text: as §1, §2, §3

Another experiment deals with AncSR1_Alt5. Description: luciferase reporter assay, alternative reconstruction AncSR1_Alt5. Type of experiment: cell-based. The settings on record: for activation (in words): Alt5, fold activation at 10^-6 M, Fig. S5C.
From the text: as §1, §2, §3

A further experiment deals with AncSR1_Alt4. The experiment is described as follows: luciferase reporter assay, alternative reconstruction AncSR1_Alt4. Type of experiment: cell-based. The settings on record: for activation (in words): Alt4, fold activation at 10^-6 M, Fig. S5C.
From the text: as §1, §2, §3

The subject of a further experiment is AncSR1_Alt3. Description: luciferase reporter assay, alternative reconstruction AncSR1_Alt3. In kind it is cell-based. The settings on record: for activation (in words): Alt3, fold activation at 10^-6 M, Fig. S5C.
From the text: as §1, §2, §3

Experiment [3] addresses T3, human mineralocorticoid receptor (hMR) (Homo sapiens, UniProt P08235).
T3 sequence (P08235 736-984): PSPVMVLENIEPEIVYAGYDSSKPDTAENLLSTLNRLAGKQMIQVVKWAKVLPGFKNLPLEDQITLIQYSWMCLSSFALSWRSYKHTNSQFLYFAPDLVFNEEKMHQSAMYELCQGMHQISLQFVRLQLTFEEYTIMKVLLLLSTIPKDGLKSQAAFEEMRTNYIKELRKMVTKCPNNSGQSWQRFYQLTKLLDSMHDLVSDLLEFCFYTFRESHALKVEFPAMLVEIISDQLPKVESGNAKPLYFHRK
Description: luciferase reporter assay, human MR LBD. Type of experiment: cell-based.

The subject of a further experiment is AncSR1. Description: luciferase reporter assay, inhibition of AncSR1 in the presence of estradiol. The settings on record: with estradiol. Type of experiment: cell-based.
In the next experiment the test system is AncSR2. The experiment is described as follows: luciferase reporter assay, inhibition of AncSR2 in the presence of EC80 11-deoxycorticosterone. The settings on record: in the presence of EC80 11-deoxycorticosterone (1.7 nM).
Experiment [4] deals with T4, human estrogen receptor alpha (hERα) (Homo sapiens, UniProt P03372).
T4 sequence (P03372 311-595 limits assumed): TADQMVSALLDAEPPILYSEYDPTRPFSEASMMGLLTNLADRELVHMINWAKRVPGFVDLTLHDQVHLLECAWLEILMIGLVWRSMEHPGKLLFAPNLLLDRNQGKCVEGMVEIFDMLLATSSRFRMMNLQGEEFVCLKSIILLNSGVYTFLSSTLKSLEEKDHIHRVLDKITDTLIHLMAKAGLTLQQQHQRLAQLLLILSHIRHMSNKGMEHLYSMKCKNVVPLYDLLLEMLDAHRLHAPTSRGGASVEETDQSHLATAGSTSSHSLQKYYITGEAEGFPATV
The experiment is described as follows: luciferase reporter assay, human ERα LBD. Type of experiment: cell-based. The settings on record: Fig. S8.

Where [5] appears, read: AncSR1, representative dose activation curves (Fig. S3) and Table S5 section b.
Setting [6] is: AncSR2, Table S5 section c, pairs H1/H2: 23/8, 19/18, listed as given under Hormone 1.
The mark [7] stands for this setting: AncSR2, Table S5 section f, pairs H1/H2: 1/6, 2/7, listed as given under Hormone 1.
Where [8] appears, read: AncSR2, Table S5 section g, pairs H1/H2: 1/3, 2/4, listed as given under Hormone 1.

Take `C[C@]12CC[C@@H]3c4ccc(O)cc4CC[C@H]3[C@@H]1CC[C@@H]2O` [estradiol]: the 50% effective concentration (EC50) with AncSR1_Alt2 (Alt2, Fig. S5B) was 350 nM; in the experiment with AncSR2-LBD (read-out: EC50), over 10000 nM; in [1], 8.6 nM; in the experiment with AncSR1-LBD (setting [5]), 49 nM; in the experiment with AncSR1-LBD (AncSR1-ML, Fig. S5B), 66 nM; in experiment [2] it was 12 nM. Moreover, the EC50 with AncSR1_Alt1 (Alt1, Fig. S5B) was 50 nM; in the experiment with AncSR1_Alt5 (Alt5, Fig. S5B) it was 94 nM; with AncSR1_Alt4 (Alt4, Fig. S5B), 316 nM; in the experiment on AncSR1_Alt3 (Alt3, Fig. S5B) it was 12 nM. Besides, the EC80 in the experiment on AncSR1-LBD (AncSR1, estradiol concentration used in inhibition assay) was found to be 200 nM.
`C[C@]12CCC(=O)C=C1CC[C@@H]1[C@@H]2[C@@H](O)C[C@@]2(C)[C@H]1CC[C@]2(O)C(=O)CO` [cortisol]: the EC50 in the experiment on AncSR2-LBD (read-out: EC50) was 9.8 nM; in [3] it was 37 nM.
Regarding `C[C@]12CC[C@@H]3c4ccc(O)cc4C[C@@H](CCCCCCCCC[S+]([O-])CCCC(F)(F)C(F)(F)F)[C@H]3[C@@H]1CC[C@@H]2O` (some centres unmarked) [ICI 182,780, fulvestrant], the “inhibition of AncSR1 (in words)” value in the experiment with AncSR1 was “competitively inhibited”. In addition, the “inhibition of AncSR2 (in words)” value in the experiment with AncSR2 was “not inhibited”.
As to `CC(=O)[C@H]1CCC2C3CCc4cc(O)ccc4C3CC[C@@]21C` (some centres unmarked) [NPT, 19-nor-1,3, 5(10)-pregnatriene-3-ol-20-one], the “Ratio H1/H2 of EC50, preference for non-aromatized A-ring” value in the experiment on AncSR2-LBD (setting [6]) is given as 113.75. In the experiment on AncSR2-LBD (setting [6]), the “Ratio H2/H1 of EC50, preference for non-aromatized A-ring” value is on record as 0.01. The EC50 with AncSR2-LBD came to 182 nM; in [1], 8.7 nM; in the experiment on AncSR1-LBD (setting [5]), 179 nM; in experiment [2], 1.2 nM; in [4], 5.4 nM. Moreover, the “activation of AncSR1 (in words)” value in the experiment on AncSR1-LBD (luciferase reporter) is on record as “almost as potent an AncSR1 activator as endogenous estrogens”.
In the case of 11-deoxycorticosterone, the “activation (in words)” value in the experiment with AncSR1_Alt2, with AncSR1-LBD (AncSR1-ML), in the experiment with AncSR1_Alt1, in the experiment on AncSR1_Alt5, with AncSR1_Alt4 and in the experiment on AncSR1_Alt3 was “none are activated” throughout. In the experiment with AncSR2-LBD (AncSR2, 11-deoxycorticosterone concentration used in inhibition assay), this compound came in with an EC80 of 1.7 nM. In the experiment on AncSR2-LBD (setting [7]), the “Ratio H1/H2 of EC50, preference for 21-OH group vs. H group” value turned out to be 0.08. Also, in the experiment on AncSR2-LBD (setting [7]), the “Ratio H2/H1 of EC50, preference for 21-OH group vs. H group” value was found to be 13.10. In addition, in the experiment on AncSR2-LBD (setting [8]), the “Ratio H1/H2 of EC50, preference for 11-OH vs. H group” value worked out at 1.35. The “Ratio H2/H1 of EC50, preference for 11-OH vs. H group” value in the experiment on AncSR2-LBD (setting [8]) is listed as 0.74. The EC50 in the experiment on AncSR2-LBD (read-out: EC50) amounted to 0.42 nM.
Regarding `C[C@]12CCC(=O)C[C@@H]1CC[C@@H]1[C@@H]2CC[C@]2(C)[C@@H](O)CC[C@@H]12` [dihydrotestosterone], the “activation (in words)” value with AncSR1_Alt2, in the experiment with AncSR1-LBD (AncSR1-ML), in the experiment on AncSR1_Alt1, with AncSR1_Alt5, in the experiment on AncSR1_Alt4 and in the experiment on AncSR1_Alt3 was “none are activated” in each case. In addition, in the experiment on AncSR2-LBD, the EC50 is 172 nM.
For the compound `CC/C(=C(\c1ccc(O)cc1)c1ccc(OCCN(C)C)cc1)c1ccccc1` [4-hydroxytamoxifen, 4-Hydroxytamoxifen], the “inhibition of AncSR1 (in words)” value in the experiment on AncSR1 was “competitively inhibited”. In addition, the “inhibition of AncSR2 (in words)” value in the experiment on AncSR2 is “not inhibited”.

What is called EC50 is the concentration that produces a half-maximal response. One may read the EC80 as the concentration at which the effect reaches the 80% level.
